Laboratory results: ChEMBL document CHEMBL5230087, “Inhibitors of SARS-CoV-2 Entry: Current and Future Opportunities” (J Med Chem, 2020)
Square brackets hold non-standard residues; d marks the D form. Peptide text beside a SMILES is read from it. * marks the point of attachment. ξ: configuration not given here. ξF = NC(Cc1ccccc1)C(=O)O; Cbz = O=C(OCc1ccccc1)*

Tests used:
[1] = Antiviral activity against pseudovirus SARS-CoV spike protein infected in HeLa cells over expressing ACE2 assessed as inhibition on pseudovirus infection incubated for 52 hrs by luminescence based microplate reader analysis; format: functional, cell-based
[2] = target: T1, Angiotensin-converting enzyme 2 (Homo sapiens, UniProt Q9BYF1); assay: Inhibition of human recombinant ACE2
[3] = Cytotoxicity against african green monkey Vero cells incubated for 3 days; format: toxicity, cell-based; conditions: chlorocebus sabaeus, time 3 day
Human coronavirus 229E [4] = assay: Antiviral activity against HCoV-229E; format: functional, organism-based
[5] = Inhibition of MERS-CoV S protein RBD (E367 to Y606 residues) expressed in Fc portion of the human IgG1 in CHO cells by chromatography method; parameters: species or system Middle East respiratory syndrome-related coronavirus
[6] = Antiviral activity against HCoV-NL63 assessed as viral growth inhibition; format: functional, Human coronavirus NL63
[7] = target: T1, Angiotensin-converting enzyme 2; assay: Inhibition of human recombinant ACE2 at 50 uM using (7Mca-Y-V-A- D -A-P- K(Knp) as a flurogenic substrate measured after 10 mins by fluorescence based analysis
[8] = target: T1, Angiotensin-converting enzyme 2; assay: Inhibition of SARS-CoV S binding to human recombinant ACE2 expressed in Escherichia coli BL21(DE3) incubated for 2 hrs by ELISA method
[9] = Selectivity index, ratio of CC50 for African green monkey Vero cells to EC50 for SARS-CoV-2 nCoV-2019; format: toxicity; conditions: read-out: Selectivity Index
SARS-CoV-2 = assay: Antiviral activity against SARS-COV2 infected in African green monkey Vero B cells incubated for 48 hrs by ELISA; format: functional, organism-based; conditions: Severe acute respiratory syndrome coronavirus 2, Vero B
Ebolavirus = assay: microbe, parasite or virus in culture; format: functional, organism-based; conditions: Orthoebolavirus
HeLa = assay: Antiproliferative activity against human HeLa cells assessed as reduction in cell growth inhibition; format: functional, cell-based
Human coronavirus 229E [10] = assay: Antiviral activity against HCoV-229E assessed as reduction of viral RNA level at 4 uM; format: functional, organism-based
[11] = Cytotoxicity against African green monkey Vero cells by MTT assay; format: toxicity, cell-based; conditions: chlorocebus sabaeus
[12] = Inhibition of clathrin mediated endocytosis (unknown origin); parameters: species or system Homo sapiens

T1 sequence (Q9BYF1 whole entry): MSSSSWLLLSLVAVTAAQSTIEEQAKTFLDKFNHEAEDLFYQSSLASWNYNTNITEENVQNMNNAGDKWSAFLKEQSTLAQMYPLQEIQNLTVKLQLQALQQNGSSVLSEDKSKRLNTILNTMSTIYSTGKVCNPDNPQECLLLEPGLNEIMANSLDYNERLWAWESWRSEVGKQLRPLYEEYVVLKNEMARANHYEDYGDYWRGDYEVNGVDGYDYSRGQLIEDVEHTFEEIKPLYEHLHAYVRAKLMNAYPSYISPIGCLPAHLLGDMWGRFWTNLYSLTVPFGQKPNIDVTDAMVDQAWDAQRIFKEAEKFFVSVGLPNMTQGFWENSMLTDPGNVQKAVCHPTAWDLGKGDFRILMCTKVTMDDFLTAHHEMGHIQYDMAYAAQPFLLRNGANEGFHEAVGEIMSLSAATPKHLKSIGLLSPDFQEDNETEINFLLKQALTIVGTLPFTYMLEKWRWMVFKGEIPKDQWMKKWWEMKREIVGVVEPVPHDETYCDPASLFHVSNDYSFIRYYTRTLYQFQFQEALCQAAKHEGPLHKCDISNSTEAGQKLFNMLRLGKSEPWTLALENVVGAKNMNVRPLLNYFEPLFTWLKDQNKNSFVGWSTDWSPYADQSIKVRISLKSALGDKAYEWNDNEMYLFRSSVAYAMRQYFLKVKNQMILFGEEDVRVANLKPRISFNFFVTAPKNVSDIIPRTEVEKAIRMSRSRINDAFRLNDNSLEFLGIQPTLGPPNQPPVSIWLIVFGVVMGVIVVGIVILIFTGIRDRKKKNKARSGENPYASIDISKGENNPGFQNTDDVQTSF

## CC(C)[C@H](NC(=O)OCc1ccccc1)C(=O)NC(C=O)Cc1ccccc1 (stereo partly drawn) (Cbz-Val-[ξF]-aldehyde)
[1]
  EC50: 0.1 µM

## O=C(Nc1ccc2c(c1)C(=O)c1ccccc1C2=O)c1ccccc1
[2]
  IC50: 9.7 µM
[3]
  CC50 at 72 h: 20 µM

## O=C(NC(Cc1ccccc1)C(=O)N1CCC(O)(c2ccc(Br)cc2)CC1)c1ccccc1 (centres undefined)
Human coronavirus 229E [4]
  EC50: 110 µM

## CN1CCN(C(=O)N[C@@H](Cc2ccccc2)C(=O)N[C@H](/C=C/S(=O)(=O)c2ccccc2)CCc2ccccc2)CC1 [K-777]
Human coronavirus 229E [4]
  IC50: 0.00148 µM
[5]
  IC50: 0.0461 µM
[6]
  IC50: 0.00678 µM
[3]
  CC50 at 72 h: > 10 µM

## CC(C)CC(NC(Cc1cncn1Cc1cc(Cl)cc(Cl)c1)C(=O)O)C(=O)O (centres undefined)
[7]
  IC50: 0.00044 µM

## CC[C@H](C)[C@H](NC(=O)[C@H](CO)NC(=O)[C@H](CCCCN)NC(=O)[C@H](CCC(N)=O)NC(=O)[C@H](CO)NC(=O)[C@@H](NC(=O)[C@@H](N)CO)[C@@H](C)O)C(=O)N[C@H](C(=O)N[C@@H](C)C(=O)N[C@@H](Cc1ccc(O)cc1)C(=O)N[C@H](C(=O)N[C@@H](CCSC)C(=O)O)[C@@H](C)O)C(C)C
[8]
  IC50: 0.00188 µM

## O=C(OC[C@H]1O[C@@H](OC(=O)c2cc(O)c(O)c(O)c2)[C@H](OC(=O)c2cc(O)c(O)c(O)c2)[C@H](OC(=O)c2cc(O)c(O)c(O)c2)[C@@H]1O)c1cc(O)c(O)c(O)c1
[9]
  selectivity ratio: 240
[3]
  CC50 at 72 h: 1080 µM

## CC[C@H](C)[C@H](NC(=O)[C@H](Cc1ccc(O)cc1)NC(=O)[C@H](CO)NC(=O)[C@H](CCC(=O)O)NC(=O)[C@H](CC(N)=O)NC(=O)[C@H](CC(C)C)NC(=O)[C@H](C)NC(=O)[C@H](CCCCN)NC(=O)[C@@H](NC(=O)[C@@H](NC(=O)[C@H](CCC(N)=O)NC(=O)[C@H](CCC(N)=O)NC(=O)[C@H](CC(C)C)NC(=O)[C@H](CO)NC(=O)[C@H](CC(C)C)NC(=O)[C@H](CCSC)NC(=O)[C@H](CCC(=O)O)NC(=O)[C@H](Cc1ccc(O)cc1)NC(=O)[C@@H](NC(=O)[C@H](CC(C)C)NC(=O)[C@H](CC(=O)O)NC(=O)[C@H](CC(C)C)NC(=O)[C@H](CC(C)C)NC(=O)[C@@H](NC(=O)[C@@H](NC(=O)[C@H](CC(N)=O)NC(=O)[C@@H](NC(=O)[C@H](CCC(N)=O)NC(=O)[C@@H](NC(=O)[C@H](CC(C)C)NC(=O)[C@@H](N)CO)[C@@H](C)O)[C@@H](C)CC)[C@@H](C)O)[C@@H](C)O)[C@@H](C)O)C(C)C)C(C)C)C(=O)N[C@@H](CC(=O)O)C(=O)N[C@@H](CC(C)C)C(=O)N[C@@H](CCCCN)C(=O)N[C@@H](CCC(=O)O)C(=O)N[C@@H](CC(C)C)C(=O)O
SARS-CoV-2
  EC50: > 1000 µM
[5]
  IC50: 0.6 µM

## O=c1c(O)c(-c2ccc(O)c(O)c2)oc2cc(O)cc(O)c12 [QUERCETIN]
[3]
  CC50 at 72 h: 3320 µM

## CC[C@H](C)[C@@H](NC(=O)[C@H]1CCCN1C(=O)[C@H](CCC(N)=O)NC(=O)[C@H](Cc1ccc(O)cc1)NC(=O)CNC(=O)[C@H](CCCCN)NC(=O)[C@H](Cc1ccc(O)cc1)NC(=O)[C@@H](NC(=O)[C@H](Cc1ccc(O)cc1)NC(=O)[C@H](CC(C)C)NC(=O)[C@H](Cc1ccccc1)NC(=O)CN)C(C)C)C(=O)O
[8]
  IC50: 0.0043 µM

## CC(C)(C)OC(=O)N[C@@H](Cc1c[nH]c2ccccc12)C(=O)NNC(=O)OCC(=O)N1CCCc2ccccc21
[1]
  EC50: 0.273 µM
Ebolavirus
  EC50: 0.193 µM

## CN1CCN(CCOc2cc(OC3CCOCC3)c3c(Nc4c(Cl)ccc5c4OCO5)ncnc3c2)CC1 [SARACATINIB]
HeLa
  IC50: 2.4 µM
Human coronavirus 229E [10]
  IC50: 5.1 µM
[11]
  CC50: > 50 µM

## CN(C)CCCN1c2ccccc2Sc2ccc(Cl)cc21 [CHLORPROMAZINE]
[12]
  IC50: 7.24 µM

## OC(COc1cccc(OCC(O)CN2CCCCC2)c1)CN1CCCCC1 (centres undefined)
[1]
  EC50: 3 µM

## CC(C)CC(CC(=O)NO)C(=O)NC(Cc1ccc2ccccc2c1)C(=O)NC(C)C(N)=O (centres undefined)
[7]
  IC50: 0.1 µM
